From patent US4520026A, “Indolizine derivatives and use as cardiovascular agents” (S. A. Labaz N.V., priority 1982, dated 1985)

What was measured:
[1] = system: epinephrine-increased blood-pressure (anti-α effect); experiment: Antiadrenergic effect: anti-α effect (reduction of epinephrine-increased blood-pressure); type: in vivo; settings: dog
Experimental: (§1) The purpose of this test was to determine the capacity of the compounds under study to reduce epinephrine-increased blood-pressure (anti-α effect) and epinephrine-accelerated heart rate (anti-β effect) in the dog previously anaesthetized with pentobarbital and atropinized.
(§2) For each dog, the dose of epinephrine was first determined which provoked a reproductible increase by about 100 mm. Hg in the arterial pressure (between 5 and 10 μg/kg). After that, the dose of epinephrine so determined was administered followed by a dose by intravenous route of the compound to be studied. The percentage of reduction of the hypertension provoked by the compound under study in comparison with the hypertension previously obtained (about 100 mm. Hg) was then registered.
(§3) The percentage of reduction of the epinephrine-induced acceleration of heart-rate produced by the compound under study in comparison with the tachycardia previously measured (about 70 beats) was then registered. In both cases, the results were expressed as follows: […]
(§4) + for a <50%-reduction of the increase in pressure or cardiac frequency
(§5) ++ for a ≥50%-reduction of the increase in pressure or cardiac frequency
(§6) +++ for a subtotal reduction of the increase in pressure or cardiac frequency

[2] = system: epinephrine-accelerated heart rate (anti-β effect); experiment: Antiadrenergic effect: anti-β effect (reduction of epinephrine-accelerated heart rate); type: in vivo; settings: dog
Experimental: as §1, §2, §3, §4, §5, §6

[3] = Canis lupus familiaris, iv, dose 10 mg/kg i.v.
[4] = Canis lupus familiaris, iv, dose 5 mg/kg i.v.
[5] = Canis lupus familiaris, iv, dose 7.5 mg/kg i.v.
[6] = Canis lupus familiaris, iv, dose 7.8 mg/kg i.v.

CCCCN(CCCC)CCCOc1ccc(C(=O)c2c(-c3ccccc3)cc3ccccn23)cc1Br [H/Br/H/drawing 24/n-C4H9/3]
Anti-α effect ([1]; dose 10 mg/kg i.v.): +++
inhibition in vivo at 10 mg/kg [2, 3]: > 50%

CCCN(CCC)CCCOc1ccc(C(=O)c2c(-c3cccc(Br)c3)c(Br)c3ccccn23)cc1Cl [Br/Cl/H/drawing 32/n-C3H7/3]
Anti-α effect ([1]; dose 10 mg/kg i.v.): +++
Anti-β effect ([2]; dose 10 mg/kg i.v.): +++

CCCCN(CCCC)CCCOc1ccc(C(=O)c2c(CC)c(Br)c3ccccn23)cc1OC [Br/OCH3/H/C2H5/n-C4H9/3, 1-Bromo-2-ethyl-3-[4-(3-di-n-butylaminopropyl)-oxy-3-methoxy-benzoyl]-indolizine]
inhibition in vivo at 5 mg/kg [1, 4]: > 50%
inhibition in vivo at 5 mg/kg [2, 4]: > 50%

CCCN(CCC)CCCOc1ccc(C(=O)c2c(-c3ccc(Br)cc3)c(Br)c3ccccn23)cc1Cl [Br/Cl/H/drawing 27/n-C3H7/3]
inhibition in vivo at 10 mg/kg [1, 3]: > 50%
inhibition in vivo at 10 mg/kg [2, 3]: > 50%

CCCCN(CCCC)CCCOc1ccc(C(=O)c2c(-c3ccccc3)c(C)c3ccccn23)cc1Br [CH3/Br/H/drawing 45/n-C4H9/3, 1-Methyl-2-phenyl-3-[4-(3-di-n-butylaminopropyl)-oxy-3-bromo-benzoyl]-indolizine]
Anti-α effect ([1]; dose 6.2 mg/kg i.v.): +++
inhibition in vivo at 6.2 mg/kg ([2]; Canis lupus familiaris, iv, dose 6.2 mg/kg i.v.): > 50%

CCCCN(CCCC)CCCOc1ccc(C(=O)c2c(-c3cccc(Br)c3)cc3ccccn23)cc1Cl [H/Cl/H/drawing 25/n-C4H9/3]
inhibition in vivo at 10 mg/kg [1, 3]: > 50%
inhibition in vivo at 10 mg/kg [2, 3]: > 50%

CCCN(CCC)CCCOc1ccc(C(=O)c2c(CC)cc3ccccn23)cc1Cl [H/Cl/H/C2H5/n-C3H7/3, 2-Ethyl-3-[4-(3-di-n-propylaminopropyl)-oxy-3-chloro-benzoyl]-indolizine]
inhibition in vivo at 10 mg/kg [1, 3]: > 50%
inhibition in vivo at 10 mg/kg [2, 3]: > 50%

CCCc1c(Br)c2ccccn2c1C(=O)c1cc(Br)c(OCCCN(CCC)CCC)c(Br)c1 [Br/Br/Br/n-C3H7/n-C3H7/3, 1-Bromo-2-n-propyl-3-[4-(3-di-n-propylaminopropyl)-oxy-3,5-dibromo-benzoyl]-indolizine]
Anti-α effect ([1]; dose 10 mg/kg i.v.): +++
Anti-β effect ([2]; dose 10 mg/kg i.v.): +++

CCCCN(CCCC)CCCOc1c(Cl)cc(C(=O)c2c(-c3ccccc3)c(Cl)c3ccccn23)cc1Cl [Cl/Cl/Cl/drawing 37/n-C4H9/3, 1-Chloro-2-phenyl-3-[4-(3-di-n-butylaminopropyl)-oxy-3,5-dichloro-benzoyl]-indolizine]
Anti-α effect ([1]; dose 10 mg/kg i.v.): +++
inhibition in vivo at 10 mg/kg [2, 3]: > 50%

CCCCN(CCCC)CCCOc1ccc(C(=O)c2c(CC)cc3ccccn23)cc1Br [H/Br/H/C2H5/n-C4H9/3, 2-Ethyl-3-[4-(3-di-n-butylaminopropyl)-oxy-3-bromo-benzoyl]-indolizine]
Anti-α effect ([1]; dose 7.5 mg/kg i.v.): +++
inhibition in vivo at 7.5 mg/kg [2, 5]: > 50%

CCCN(CCC)CCCOc1c(Cl)cc(C(=O)c2c(-c3ccccc3)c(Br)c3ccccn23)cc1Cl [Br/Cl/Cl/drawing 39/n-C3H7/3, 1-Bromo-2-phenyl-3-[4-(3-di-n-propylaminopropyl)-oxy-3,5-dichloro-benzoyl]-indolizine]
inhibition in vivo at 10 mg/kg [1, 3]: > 50%
inhibition in vivo at 10 mg/kg [2, 3]: > 50%

CCCCN(CCCC)CCCOc1c(Cl)cc(C(=O)c2c(-c3ccccc3)c(Br)c3ccccn23)cc1Cl [Br/Cl/Cl/drawing 40/n-C4H9/3, 1-Bromo-2-phenyl-3-[4-(3-di-n-butylaminopropyl)-oxy-3,5-dichloro-benzoyl]-indolizine]
inhibition in vivo at 10 mg/kg [1, 3]: > 50%
inhibition in vivo at 10 mg/kg [2, 3]: > 50%

CCCCN(CCCC)CCCOc1c(Br)cc(C(=O)c2c(-c3ccccc3)cc3ccccn23)cc1Br [H/Br/Br/drawing 42/n-C4H9/3]
inhibition in vivo at 10 mg/kg [1, 3]: > 50%
inhibition in vivo at 10 mg/kg [2, 3]: > 50%

CCCN(CCC)CCCOc1ccc(C(=O)c2c(-c3ccccc3)c(C)c3ccccn23)cc1Br [CH3/Br/H/drawing 46/n-C3H7/3, 1-Methyl-2-phenyl-3-[4-(3-di-n-propylaminopropyl)-oxy-3-bromo-benzoyl]-indolizine]
inhibition in vivo at 5 mg/kg [1, 4]: > 50%
inhibition in vivo at 5 mg/kg [2, 4]: > 50%

CCCCc1cc2ccccn2c1C(=O)c1ccc(OCCCN(CCC)CCC)c(Br)c1 [H/Br/H/n-C4H9/n-C3H7/3, 2-n-Butyl-3-[4-(3-di-n-propylaminopropyl)-oxy-3-bromo-benzoyl]-indolizine]
Anti-α effect ([1]; dose 5 mg/kg i.v.): +++
inhibition in vivo at 5 mg/kg [2, 4]: > 50%

CCCN(CCC)CCCOc1ccc(C(=O)c2c(CC)c(Br)c3ccccn23)cc1Cl [Br/Cl/H/C2H5/n-C3H7/3, 1-Bromo-2-ethyl-3-[4-(3-di-n-propylaminopropyl)-oxy-3-chloro-benzoyl]-indolizine]
inhibition in vivo at 7.8 mg/kg [1, 6]: > 50%
inhibition in vivo at 7.8 mg/kg [2, 6]: > 50%

CCCCN(CCCC)CCCOc1ccc(C(=O)c2c(C(C)C)cc3ccccn23)cc1C [H/CH3/H/iso-C3H7/n-C4H9/3, 2-Isopropyl-3-[4-(3-di-n-butylaminopropyl)-oxy-3-methyl-benzoyl]-indolizine]
Anti-α effect ([1]; dose 7.5 mg/kg i.v.): +++
Anti-β effect ([2]; dose 7.5 mg/kg i.v.): +++

CCCCN(CCCC)CCCOc1ccc(C(=O)c2c(CCC)c(Cl)c3ccccn23)cc1 [Cl/H/H/n-C3H7/n-C4H9/3, 1-Chloro-2-n-propyl-3-[4-(3-di-n-butylaminopropyl)-oxy-benzoyl]-indolizine]
Anti-α effect ([1]; dose 7.5 mg/kg i.v.): +++
Anti-β effect ([2]; dose 7.5 mg/kg i.v.): +++

CCCCN(CCCC)CCCOc1ccc(C(=O)c2c(C(C)C)cc3ccccn23)cc1Br [H/Br/H/iso-C3H7/n-C4H9/3]
Anti-α effect ([1]; dose 6 mg/kg i.v.): +++
inhibition in vivo at 6 mg/kg ([2]; Canis lupus familiaris, iv, dose 6 mg/kg i.v.): > 50%

CCCCN(CCCC)CCCOc1ccc(C(=O)c2c(CC)cc3ccccn23)cc1C [H/CH3/H/C2H5/n-C4H9/3, 2-Ethyl-3-[4-(3-di-n-butylaminopropyl)-oxy-3-methyl-benzoyl]-indolizine]
Anti-α effect ([1]; dose 10 mg/kg i.v.): +++
Anti-β effect ([2]; dose 10 mg/kg i.v.): +++

CCCN(CCC)CCCOc1ccc(C(=O)c2c(-c3ccccc3)c(OC)c3ccccn23)cc1Cl [OCH3/Cl/H/drawing 43/n-C3H7/3, 1-Methoxy-2-phenyl-3-[4-(3-di-n-propylaminopropyl)-oxy-3-chloro-benzoyl]-indolizine]
Anti-α effect ([1]; dose 10 mg/kg i.v.): +++
Anti-β effect ([2]; dose 10 mg/kg i.v.): +++

CCCN(CCC)CCCOc1ccc(C(=O)c2c(-c3ccccc3)c(OC)c3ccccn23)cc1OC [OCH3/OCH3/H/drawing 44/n-C3H7/3]
inhibition in vivo at 10 mg/kg [1, 3]: > 50%
inhibition in vivo at 10 mg/kg [2, 3]: > 50%

CCCN(CCC)CCCOc1ccc(C(=O)c2c(-c3cccc(Br)c3)c(Cl)c3ccccn23)cc1Cl [Cl/Cl/H/drawing 33/n-C3H7/3, 1-Chloro-2-(3-bromo-phenyl)-3-[4-(3-di-n-propylaminopropyl)-oxy-3-chloro-benzoyl]-indolizine]
Anti-α effect ([1]; dose 8 mg/kg i.v.): +++
inhibition in vivo at 8 mg/kg ([2]; Canis lupus familiaris, iv, dose 8 mg/kg i.v.): > 50%

CCCCN(CCCC)CCCOc1ccc(C(=O)c2c(-c3ccc(Cl)cc3)c(Br)c3ccccn23)cc1Cl [Br/Cl/H/drawing 28/n-C4H9/3]
inhibition in vivo at 10 mg/kg [1, 3]: > 50%
inhibition in vivo at 10 mg/kg [2, 3]: > 50%

CCCCN(CCCC)CCCOc1ccc(C(=O)c2c(-c3ccccc3)c(Cl)c3ccccn23)cc1 [Cl/H/H/drawing 36/n-C4H9/3]
Anti-α effect ([1]; dose 5 mg/kg i.v.): +++
Anti-β effect ([2]; dose 5 mg/kg i.v.): +++

CCCCN(CCCC)CCCOc1ccc(C(=O)c2c(-c3ccc(Br)cc3)cc3ccccn23)cc1Cl [H/Cl/H/drawing 31/n-C4H9/3]
inhibition in vivo at 10 mg/kg [1, 3]: > 50%
inhibition in vivo at 10 mg/kg [2, 3]: < 50%

CCCN(CCC)CCCOc1ccc(C(=O)c2c(C)c(Br)c3ccccn23)cc1OC [Br/OCH3/H/CH3/n-C3H7/3, 1-Bromo-2-methyl-3-[4-(3-di-n-propylaminopropyl)-oxy-3-methoxy-benzoyl]-indolizine]
inhibition in vivo at 7.5 mg/kg [1, 5]: > 50%
inhibition in vivo at 7.5 mg/kg [2, 5]: > 50%

CCCCN(CCCC)CCCOc1ccc(C(=O)c2c(C)c(C)c3ccccn23)cc1Br [CH3/Br/H/CH3/n-C4H9/3, 1,2-Dimethyl-3-[4-(3-di-n-butylaminopropyl)-oxy-3-bromo-benzoyl]-indolizine]
inhibition in vivo at 10 mg/kg [1, 3]: > 50%
inhibition in vivo at 10 mg/kg [2, 3]: > 50%

CCCCN(CCCC)CCCOc1ccc(C(=O)c2c(CC)c(C)c3ccccn23)cc1Br [CH3/Br/H/C2H5/n-C4H9/3, 1-Methyl-2-ethyl-3-[4-(3-di-n-butylaminopropyl)-oxy-3-bromo-benzoyl]-indolizine]
Anti-α effect ([1]; dose 2 mg/kg i.v.): +++
inhibition in vivo at 2 mg/kg ([2]; Canis lupus familiaris, iv, dose 2 mg/kg i.v.): > 50%

CCCN(CCC)CCCOc1ccc(C(=O)c2c(-c3ccccc3)c(C)c3ccccn23)cc1 [CH3/H/H/drawing 48/n-C3H7/3, 1-Methyl-2-phenyl-3-[4-(3-di-n-propylaminopropyl)-oxy-benzoyl]-indolizine]
Anti-α effect ([1]; dose 5 mg/kg i.v.): +++
Anti-β effect ([2]; dose 5 mg/kg i.v.): +++

CCCCN(CCCC)CCCOc1ccc(C(=O)c2c(-c3ccccc3)c(C)c3ccccn23)cc1 [CH3/H/H/drawing 47/n-C4H9/3, 1-Methyl-2-phenyl-3-[4-(3-di-n-butylaminopropyl)-oxy-benzoyl]-indolizine]
Anti-α effect ([1]; dose 6.3 mg/kg i.v.): +++
Anti-β effect ([2]; dose 6.3 mg/kg i.v.): +++

CCCN(CCC)CCCOc1ccc(C(=O)c2c(-c3ccc(Cl)cc3)c(Cl)c3ccccn23)cc1 [Cl/H/H/drawing 35/n-C3H7/3]
inhibition in vivo at 5 mg/kg [1, 4]: > 50%
inhibition in vivo at 5 mg/kg [2, 4]: < 50%
